# Measurements as given in article PMC3884022 (Journal of Hematology & Oncology, 2014).
# Like-named read-outs stand apart in the source and are kept apart here.
# Experiments:
# [1] = tested on: non-small cell lung (NSCLC) cell lines and breast cancer cell lines; conditions: with erlotinib and lapatinib; including RAS mutant lines; cited from earlier work
# [2] = tested on: mouse NCI-H292 tumor xenografts; conditions: 3 times per week and QW schedule of MK-2206; cited from earlier work
# [3] = biological target: 2D6 (Homo sapiens, UniProt P10635); test: CYP2D6 inhibition; type: in vitro ADME
# [4] = tested on: patients with advanced solid tumors
# Method: The dose-escalation phase in all schedules followed a toxicity probability interval approach, where the aim was to target a dose with a DLT rate of 30% [20].
# For all treatment schedules, safety assessments were conducted at baseline and on days 1, 2, 3, 7, 15, and 21 of cycle 1, and weekly in cycles 2 to 6. From cycle 7 onwards, safety assessments were performed on day 1 of each cycle. […] In addition to glucose monitoring, serum c-peptide and whole blood HbA1c were measured at baseline and monthly. Adverse events (AEs) and laboratory variables were assessed using the National Cancer Institute Common Terminology Criteria for Adverse Events (NCI-CTCAE) version 3.0 ^1.
# [5] = tested on: advanced solid tumors; test: Phase 1 combination study: tumor response (RECIST); type: in vivo, human
# Method: Circulating nucleic acids were analyzed for PIK3CA (exons 9 and 20), KRAS (exons 2 and 3), and BRAF (exons 11 and 15) mutations. DNA extracted from whole blood samples was subjected to real-time quantitative polymerase chain reaction and spectrophotometric analysis as part of the quality control process, as previously described. Mutation screening was performed using Surveyor Nuclease (Transgenomic, Inc., Nebraska, USA). Radiologic assessment (computed tomography [CT] and/or magnetic resonance imaging [MRI] scans) of disease status was performed at baseline and every 6 weeks according to Response Evaluation Criteria in Solid Tumors (v1.0).
# [6] = tested on: AKT2; design: method as in earlier work; conditions: cited from earlier work
# [7] = tested on: patients with advanced solid tumors; conditions: cited from earlier work
# [8] = tested on: NCI-H292 and A2780 tumor cells; conditions: with carboplatin and docetaxel; cited from earlier work
# [9] = Phase 1 combination study: MK-2206 pharmacokinetics; type: in vivo, human; conditions: for Tmax / half-life: first dose; for Tmax: read-out: T max, median (range); for half-life: read-out: t 1/2, harmonic mean ± pseudo SD (converted)
# Method: For the Q3W schedule, samples were taken in cycle 1 on days 1 to 3 as per the QOD schedule, then on days 5, 7, 15, and in cycle 2 on day 1. Blood samples were collected predose and just before the end of the infusion for carboplatin, paclitaxel, and docetaxel for archival and possible PK analysis. Another sample was taken 30 minutes into the infusion of paclitaxel. These samples were archived for possible future analysis to investigate if any unexpected toxicities may have been as a result of a PK interaction. Docetaxel PK samples were analyzed in view of the DLT of febrile neutropenia observed in arm 2; however, PK parameters, such as half-life (t1/2) or systemic exposure of paclitaxel, docetaxel, carboplatin, and erlotinib, could not be evaluated due to the sparse blood sampling design used in this study.
# For QW dosing, samples were taken in cycle 1 on day 1 (predose, 2, 4, 6, 10, and 24 hours postdose), day 3 (48 hours postdose), and day 5 (96 hours postdose), then on days 8 and 15 (predose). This sampling schedule was repeated in cycle 2, except for the day 15 predose sample, which was omitted. For the QOD schedule, PK sampling for erlotinib was performed in cycle 1 on day 1 (predose, 2 and 4 hours postdose) and day 21 (2 and 4 hours postdose); for the QW schedule, sampling was performed in cycle 1 on day 1 (predose, 2 and 4 hours postdose) and in cycle 2 on day 1 (2 and 4 hours postdose). […] Blood samples were not analyzed for erlotinib concentrations as the potential for a marked drug-drug interaction with erlotinib as a victim was considered to be low as erlotinib is metabolized by both CYP3A and CYP1A.
# [10] = tested on: PC-3 prostate and NCI-H462 tumor xenografts; conditions: with docetaxel, carboplatin, and gemcitabine; cited from earlier work
# [11] = human, plasma, oral, arm 1 carboplatin AUC 6 + paclitaxel 200 mg/m^2, MK-2206 90 mg Q3W, 5 patients
# [12] = human, plasma, oral, arm 1 carboplatin AUC 6 + paclitaxel 200 mg/m^2, MK-2206 200 mg Q3W, 5 patients
# [13] = human, plasma, oral, arm 2 docetaxel 60 mg/m^2, MK-2206 90 mg Q3W, 3 patients
# [14] = human, plasma, oral, arm 2 docetaxel 60 mg/m^2, MK-2206 200 mg Q3W, 4 patients
# [15] = human, plasma, oral, arm 3 erlotinib 100 mg, MK-2206 135 mg QW, 6 patients
# [16] = human, plasma, oral, arm 3 erlotinib 150 mg QD, MK-2206 135 mg QW, 6 patients
# Chain of 2D6 (P10635 whole entry): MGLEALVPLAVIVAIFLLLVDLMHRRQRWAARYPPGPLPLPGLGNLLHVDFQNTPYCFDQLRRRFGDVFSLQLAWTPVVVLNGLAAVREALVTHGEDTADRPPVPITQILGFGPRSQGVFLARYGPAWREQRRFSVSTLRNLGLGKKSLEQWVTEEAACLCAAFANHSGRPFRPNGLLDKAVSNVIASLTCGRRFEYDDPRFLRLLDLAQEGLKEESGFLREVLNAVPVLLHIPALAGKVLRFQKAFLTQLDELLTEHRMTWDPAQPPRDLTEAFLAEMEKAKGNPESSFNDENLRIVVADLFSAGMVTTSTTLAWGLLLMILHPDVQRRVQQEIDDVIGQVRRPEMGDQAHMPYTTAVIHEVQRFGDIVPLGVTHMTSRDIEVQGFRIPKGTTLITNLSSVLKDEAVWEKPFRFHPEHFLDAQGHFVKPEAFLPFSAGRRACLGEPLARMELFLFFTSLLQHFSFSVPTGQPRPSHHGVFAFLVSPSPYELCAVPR
smiles,measurement,setting,value
NC1(c2ccc(-c3nc4ccn5c(=O)[nH]nc5c4cc3-c3ccccc3)cc2)CCC1 [MK-2206],inhibition of proliferation and induction of apoptosis in combination,[1],synergy
same,tumor growth suppression in combination with erlotinib,[2],significantly greater in vivo tumor growth suppression and tumor regressions over each single agent
same,IC50,[3],> 35000 nM
same,"vomiting, frequency of AE",[4]; all arms and schedules (N = 72),36%
same,"rash, frequency","[4]; arm 1, Q3W schedule",25%
same,MTD of MK-2206,"[4]; arm 1, Q3W, with carboplatin AUC 6 and paclitaxel 200 mg/m^2",135 mg
same,MTD of MK-2206,"[4]; arm 1, QOD days 1, 3, 5, 7, PO, with carboplatin AUC 6 and paclitaxel 200 mg/m^2",45 mg
same,MTD of MK-2206,"[4]; arm 2, Q3W, with docetaxel",not reached
same,MAD of MK-2206,"[4]; arm 2, Q3W, with docetaxel 60 mg/m^2",200 mg
same,DLT rate,"[4]; arm 3, MK-2206 135 mg QW with erlotinib",17%
same,MTD of MK-2206,"[4]; arm 3, QW, with erlotinib",not reached
same,Alopecia Grade 4,"[4]; human, in vivo",0 n (%)
same,Decreased appetite Grade 4,"[4]; human, in vivo",0 n (%)
same,Diarrhea Grade 4,"[4]; human, in vivo",0 n (%)
same,Fatigue Grade 4,"[4]; human, in vivo",0 n (%)
same,Nausea Grade 4,"[4]; human, in vivo",0 n (%)
same,Pruritus Grade 4,"[4]; human, in vivo",0 n (%)
same,Rash Grade 4,"[4]; human, in vivo",0 n (%)
same,Stomatitis Grade 4,"[4]; human, in vivo",0 n (%)
same,Vomiting Grade 4,"[4]; human, in vivo",0 n (%)
same,"alopecia, frequency of AE","[4]; human, in vivo",40%
same,"anorexia, frequency of AE","[4]; human, in vivo",44%
same,"diarrhea, frequency of AE","[4]; human, in vivo",44%
same,"fatigue, frequency of AE","[4]; human, in vivo",68%
same,"hyperglycemia, frequency of AE","[4]; human, in vivo",25%
same,"nausea, frequency of AE","[4]; human, in vivo",49%
same,"rash, frequency","[4]; human, in vivo",40%
same,"rash, frequency of AE","[4]; human, in vivo",47%
same,rate of febrile neutropenia,"[4]; human, in vivo",60%
same,"stomatitis, frequency of AE","[4]; human, in vivo",32%
same,time to full reversal of rash after dose interruption and appropriate treatment,"[4]; human, in vivo",7 to 14 days
same,Dose-limiting toxicities,"[4]; human, in vivo, 21 days",0
same,duration of SD,[5]; 1 metastatic breast cancer patient harboring a PIK3CA mutation (exon 20),4 months
same,"duration of PR, range",[5]; arm 1,2–21 months
same,median duration of PR,[5]; arm 1,11 months
same,"confirmed partial responses, patients","[5]; arm 1, QOD and Q3W schedules, melanoma, neuroendocrine prostate, endometrial, cervical",4
same,duration of unconfirmed PR,"[5]; arm 1, SCC of the head and neck (n = 1)",2 month
same,"unconfirmed PRs, patients","[5]; arm 1, SCC of the head and neck, and gastric",2 patients
same,duration of confirmed PR,"[5]; arm 1, cervical (n = 1)",6 month
same,duration of confirmed PR,"[5]; arm 1, endometrial (n = 1)",4 month
same,duration of unconfirmed PR,"[5]; arm 1, gastric (n = 1)",2 month
same,duration of confirmed PR,"[5]; arm 1, melanoma (n = 1)",21 month
same,duration of confirmed PR,"[5]; arm 1, neuroendocrine prostate (n = 1)",6 month
same,"complete response, patients","[5]; arm 1 carboplatin and paclitaxel, squamous cell carcinoma (SCC) of the orbit, 24 evaluable",1 patient
same,duration of PR,"[5]; arm 2, MK-2206 200 mg with docetaxel, NSCLC patient",6 months
same,"confirmed PR, patients","[5]; arm 2, Q3W MK-2206 and docetaxel, NSCLC",One
same,objective responses,[5]; arm 3 erlotinib,No objective responses
same,"best response SD, duration","[5]; arm 3 erlotinib, QW schedule, patient with NSCLC",7 months
same,"best response SD, duration","[5]; arm 3 erlotinib, patient with cervical cancer",6 months
same,"duration of SD, range",[5]; in vivo,1–13 months
same,median duration of SD,[5]; in vivo,7 months
same,patients with SD lasting at least 6 months,[5]; in vivo,Six
same,duration of SD,[5]; patients harboring PIK3CA mutations,1.7 to 5.8 months
same,duration of SD,[5]; patients with KRAS mutations,1.4 to 3.0 months
same,IC50,[6],12 nM
same,MTD of single-agent MK-2206,[7]; QOD,60 mg
same,MTD of MK-2206 monotherapy,"[7]; QW, monotherapy phase 1 study",200 mg
same,half-life (t1/2),"[7]; single agent, QOD schedule",60 to 80 h
same,dose-limiting toxicities (DLT),[7]; single agent,rash and stomatitis
same,plasma concentration corresponding to 70% AKT inhibition,[7]; single-agent phase 1 study,56.8 nM
same,inhibition of tumor cell growth in combination,[8],synergy
same,mean Ctrough,[9]; 45-mg dose level in all schedules,> 56.8 nM
same,mean 48-hr plasma concentration,"[9]; 60-mg QOD (arm 1), last PK sampling time",above 56.8 nM
same,"AUC, Cmax and Tmax following the first MK-2206 dose","[9]; all treatment arms, compared with single-agent phase 1 study (ref 18)",within ranges observed at the corresponding dose levels in the single-agent phase 1 study
same,apparent t1/2 in combination with carboplatin and erlotinib,[9]; compared with monotherapy,consistent with that observed with monotherapy
same,Tmax,"[9]; human, plasma, oral, arm 1 carboplatin AUC 6 + paclitaxel 200 mg/m^2, MK-2206 45 mg QOD, 6 patients",4 h
same,Tmax,"[9]; human, plasma, oral, arm 1 carboplatin AUC 6 + paclitaxel 200 mg/m^2, MK-2206 60 mg QOD, 8 patients",8 h
same,Tmax,[9]; [11],6 h
same,half-life,[9]; [11],79.5 ± 17.3 h
same,half-life,"[9]; human, plasma, oral, arm 1 carboplatin AUC 6 + paclitaxel 200 mg/m^2, MK-2206 135 mg Q3W, 6 patients",73 ± 20 h
same,Tmax,[9]; [12],4 h
same,half-life,[9]; [12],74.7 ± 13.4 h
same,Tmax,[9]; [13],4 h
same,half-life,[9]; [13],105 ± 15 h
same,half-life,"[9]; human, plasma, oral, arm 2 docetaxel 60 mg/m^2, MK-2206 135 mg Q3W, 3 patients",106 ± 32.7 h
same,Tmax,[9]; [14],6 h
same,half-life,[9]; [14],86.9 ± 11.5 h
same,Tmax,"[9]; human, plasma, oral, arm 2 docetaxel 75 mg/m^2, MK-2206 45 mg QOD, 5 patients",6 h
same,Tmax,"[9]; human, plasma, oral, arm 3 erlotinib 100 mg, MK-2206 45 mg QOD, 9 patients",6 h
same,Tmax,[9]; [15],6 h
same,half-life,[9]; [15],60.6 ± 6.6 h
same,Tmax,"[9]; human, plasma, oral, arm 3 erlotinib 150 mg QD, MK-2206 45 mg QOD, 4 patients",7 h
same,Tmax,[9]; [16],4 h
same,half-life,[9]; [16],50.2 ± 10.3 h
same,concentration at 48 h,"[9]; human, plasma, oral, 45-mg QOD (arm 3), last PK sampling time",> 56.8 nM
same,inhibition of xenograft growth in combination,[10],synergised
